One assay has as its target T1, SaFMN3 (Streptomyces azureus, UniProt A0A0K8PVQ4).
T1 construct: gene SAZU_6878; N-terminal residues 1-48 (signal/membrane anchor) removed; His6-SUMO fusion, cleaved; E. coli BL21-AI with ApbE and CaFADS; mainly monomer; three FMN domains
T1 sequence (A0A0K8PVQ4 49-352): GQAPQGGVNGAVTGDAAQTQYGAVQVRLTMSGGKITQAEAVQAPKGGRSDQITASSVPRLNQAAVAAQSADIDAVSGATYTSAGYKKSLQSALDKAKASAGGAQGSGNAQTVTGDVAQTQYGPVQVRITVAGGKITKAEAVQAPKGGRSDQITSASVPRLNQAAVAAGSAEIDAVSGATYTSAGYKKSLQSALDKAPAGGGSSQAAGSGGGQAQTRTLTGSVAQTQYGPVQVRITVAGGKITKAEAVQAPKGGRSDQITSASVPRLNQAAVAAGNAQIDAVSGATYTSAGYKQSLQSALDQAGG
Put plainly: ESI-MS of intact protein; TCA precipitation; UV-visible spectrum. The class given is binding. Particulars: covalent; three FMN sites, threonyl phosphoester; attached by co-expressed ApbE.

For the next assay, the target named is T2, CbFMN4-D1 (Clostridiaceae bacterium, UniProt Z9KOB2RJF1).
T2 construct: expressed in E. coli BL21-AI with ApbE and CaFADS; SUMO cleaved; two molecules per asymmetric unit from crystal packing
T2 sequence (Z9KOB2RJF1 1-85): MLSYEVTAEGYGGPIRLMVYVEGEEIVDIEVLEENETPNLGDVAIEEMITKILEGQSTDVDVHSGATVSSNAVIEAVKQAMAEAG
The experiment in a line: X-ray crystal structure, […] A. Particulars: covalent; bound via Thr67 (domain numbering); attached by co-expressed ApbE. The class given is binding.

As for `Cc1cc2nc3c(=O)[nH]c(=O)nc-3n(C[C@H](O)[C@H](O)[C@H](O)COP(=O)(O)O)c2cc1C` [FMN], the “ESI-MS of intact protein; TCA precipitation; UV-visible spectrum” value at SaFMN3 was “exactly corresponds to the predicted mass of fully flavinylated SaFMN3”. Also, the “X-ray crystal structure, 2.60 A” value at CbFMN4-D1 is “Both CbFMN4-D1 molecules have a covalently bound FMN via Thr67”.

These data come from article PMC10339131, “Characterization of two bacterial multi-flavinylated proteins harboring multiple covalent flavin cofactors” (BBA Advances, 2023).
